{"source": "patent US4427582A", "about": "“Antimicrobial disulfide prodrugs” (SmithKline Beckman Corporation, priority 1982, dated 1984)", "key": {"Candida albicans β311": {"system": "Candida albicans β311", "assay": "Disk activity against Candida albicans β311", "type": "cell-based", "text": "(§1) For example, disk activity against Candida albicans β311 for the prodrug was 0.04 minimal inhibitory concentration with 0.01 for the warhead alone."}, "E. coli CB64recA/F'123": {"system": "E. coli CB64recA/F'123", "assay": "Disc assay for inhibition on seeded agar plates (zones of inhibition after overnight incubation)", "type": "cell-based, Escherichia coli", "design": "unit not given here", "details": "for Zones of inhibition diameter: section C", "experimental": "The medium was that of Davis and Mingioli, supplemented with 4 μg/ml of thiamine and 50 μg/ml of required amino acid supplements with 1.5% agar for solid media. Seeded agar plates contained 0.1 ml of an overnight culture per 20 ml of molten agar (kept at 49°) containing appropriate supplements.\n[…] of test solution was added to 1/4\" diameter paper discs and the discs placed on the surface of agar plates which were incubated overnight at 37°. The bacterial strains of E. coli, whose strains are given hereafter, were obtained from the E. coli Genetic Stock Center.\nZones of inhibition on seeded agar plates after overnight incubation."}, "Fungal": {"system": "Fungal", "assay": "Fungal activity in vitro, prodrug compared with non-latentiated warhead", "type": "cell-based", "text": "as §1"}, "[1]": {"details": "200 nmol per disc, overnight incubation"}, "[2]": {"details": "800 nmol per disc, overnight incubation"}, "[3]": {"details": "800 nmol per disc, overnight incubation, section B"}}, "note": "Where a SMILES comes first, the peptide text is derived from it. The star is where a group is joined. SPy = c1ccc(S*)nc1", "data": [{"molecule": "[O-][n+]1ccccc1S", "note": "[2-mercaptopyridyl-1-one, reference compound]", "values": [{"measurement": "minimal inhibitory concentration (disk activity)", "setting": "Candida albicans β311", "value": 0.01}]}, {"molecule": "C[C@H](N)C(=O)N[C@@H](C)C(=O)N[C@@H](CSSCCNc1cc(C(=O)O)nc(C(=O)O)c1)C(=O)O", "note": "[L-Ala--L-Ala--L-Ala--S--MEPDA, L-alanyl-L-alanyl-β-L-alanyl 2-(2,6-dicarboxy-pyridyl-4)-aminoethyl disulfide]", "values": [{"measurement": "Zone of inhibition diameter", "setting": "E. coli CB64recA/F'123; 30 nmol, tripeptide alone, section D", "value": 11}, {"measurement": "Zones of inhibition diameter", "setting": "E. coli CB64recA/F'123; 40 nmol per disc, overnight incubation", "value": 9}, {"measurement": "Zone of inhibition diameter", "setting": "E. coli CB64recA/F'123; 60 nmol, tripeptide alone, section D", "value": 15}, {"measurement": "Zones of inhibition diameter", "setting": "E. coli CB64recA/F'123; [1]", "value": 16}, {"measurement": "Zones of inhibition diameter", "setting": "E. coli CB64recA/F'123; [2]", "value": 24}]}, {"molecule": "C[C@H](N)C(=O)N[C@@H](CSSc1ccccn1)C(=O)O", "note": "[L-Ala--L-Ala--S--2MP, L-alanyl-β-L-alanyl 2-pyridyl disulfide] (H-Ala-Cys(SPy)-OH)", "values": [{"measurement": "Zone of inhibition diameter", "setting": "E. coli CB64recA/F'123; [3]", "value": 15}]}, {"molecule": "C[C@H](N)C(=O)N[C@@H](C)C(=O)N[C@@H](CSSc1ccccn1)C(=O)O", "note": "[L-ala- L-Ala--L-ala- S--2MP, L-alanyl-L-alanyl-β-L-alanyl 2-pyridyl disulfide] (H-Ala-Ala-Cys(SPy)-OH)", "values": [{"measurement": "Zone of inhibition diameter", "setting": "E. coli CB64recA/F'123; 40 nmol per disc, overnight incubation, section B", "value": "( )"}, {"measurement": "Zone of inhibition diameter", "setting": "E. coli CB64recA/F'123; 200 nmol per disc, overnight incubation, section B", "value": 14}, {"measurement": "Zone of inhibition diameter", "setting": "E. coli CB64recA/F'123; [3]", "value": 25}]}, {"molecule": "C[C@H](NC(=O)C(N)CCCN)C(=O)N[C@@H](CSSCCNc1cc(C(=O)O)nc(C(=O)O)c1)C(=O)O", "note": "(stereo partly drawn) [Orn--L-Ala--L-Ala--S--MEPDA]", "values": [{"measurement": "Zones of inhibition diameter", "setting": "E. coli CB64recA/F'123; [1]", "value": 10}, {"measurement": "Zones of inhibition diameter", "setting": "E. coli CB64recA/F'123; [2]", "value": 12}]}, {"molecule": "NCCCC(N)C(=O)NC(CSSCCNc1cc(C(=O)O)nc(C(=O)O)c1)C(=O)O", "note": "[Orn--L-Ala--S--MEPDA]", "values": [{"measurement": "Zones of inhibition diameter", "setting": "E. coli CB64recA/F'123; 250-500 nmol per disc, overnight incubation", "value": 13}]}, {"molecule": "L-alanyl-β-L-alanyl N-oxy 2-pyridyl disulfide", "values": [{"measurement": "activity in vitro relative to 2-mercaptopyridyl-1-one in non-latentiated form", "setting": "Fungal", "value": "generally less activity"}, {"measurement": "minimal inhibitory concentration (disk activity)", "setting": "Candida albicans β311", "value": 0.04}, {"measurement": "potential for irritation relative to 2-mercaptopyridyl-1-one", "setting": "Potential for irritation", "value": "lower potential for irritation"}]}]}
